pIC50: −log10 of the molar value.
Key:
[1] = target: T1, wt human TYK2, catalytic site (Homo sapiens, UniProt P29597); assay: HTRF KinEASE assay, TYK2; format: biochemical; conditions: 1 μM ATP; read-out: IC50, Activity Toward TYK2
T1 construct: wt human TYK2, catalytic site; purchased SignalChem
T1 sequence (P29597 897-1176 limits assumed): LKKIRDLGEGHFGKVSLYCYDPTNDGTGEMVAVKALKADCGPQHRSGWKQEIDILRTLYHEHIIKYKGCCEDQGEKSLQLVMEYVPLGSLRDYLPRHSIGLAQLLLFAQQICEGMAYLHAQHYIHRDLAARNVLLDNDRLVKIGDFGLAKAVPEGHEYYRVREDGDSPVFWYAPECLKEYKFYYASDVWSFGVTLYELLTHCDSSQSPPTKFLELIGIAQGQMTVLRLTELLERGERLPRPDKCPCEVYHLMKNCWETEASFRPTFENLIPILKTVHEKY
Outline: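 HTRF KinEASE-TK readout with 1 μM biotinylated TK substrate in 1× kinase buffer, ≥30 min at room temperature, then antibody/streptavidin-XL665 detection for 60 min. TYK2 at 2 nM with 1 μM ATP; JAK2 at 1 nM with 100 μM ATP. Analysis uses emission ratios.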

[2] = target: T2, wt human LRRK2, catalytic site (Homo sapiens, UniProt Q5S007); assay: TR-FRET LanthaScreen Eu Kinase Binding Assay, LRRK2 wt; conditions: one range stated for wt and G2019, read-out: IC50, Activity Toward LRRK2(Wt)
T2 construct: 5 nM wt human LRRK2, catalytic site; purchased ThermoFisher
Outline: (§1)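 Tracer-displacement binding: compound mixed with kinase/Eu-antibody and Kinase Tracer 236 in 1× Kinase Buffer A, 1 h at room temperature, then TR-FRET emission ratio read. LRRK2 (wt or G2019S) 5 nM with 2 nM Eu-anti-GST, 10 nM tracer; NUAK1 8 nM with 2 nM Eu-anti-His, 5 nM tracer.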

[3] = target: T3, G2019S human LRRK2, catalytic site (Homo sapiens, UniProt Q5S007, G2019S); assay: TR-FRET LanthaScreen Eu Kinase Binding Assay, LRRK2 G2019S; conditions: LRRK2(G2019); one range stated for wt and G2019; read-out: IC50, Activity Toward LRRK2(G2019)
T3 construct: G2019S human LRRK2, catalytic site; purchased ThermoFisher
Outline: as §1

[4] = target: T4, wt human NUAK1, full length (Homo sapiens, UniProt O60285); assay: TR-FRET LanthaScreen Eu Kinase Binding Assay, NUAK1; conditions: read-out: IC50, Activity Toward NUAK1
T4 construct: 8 nM wt human NUAK1, full length (ThermoFisher/USA); purchased ThermoFisher
T4 sequence (O60285 1-661): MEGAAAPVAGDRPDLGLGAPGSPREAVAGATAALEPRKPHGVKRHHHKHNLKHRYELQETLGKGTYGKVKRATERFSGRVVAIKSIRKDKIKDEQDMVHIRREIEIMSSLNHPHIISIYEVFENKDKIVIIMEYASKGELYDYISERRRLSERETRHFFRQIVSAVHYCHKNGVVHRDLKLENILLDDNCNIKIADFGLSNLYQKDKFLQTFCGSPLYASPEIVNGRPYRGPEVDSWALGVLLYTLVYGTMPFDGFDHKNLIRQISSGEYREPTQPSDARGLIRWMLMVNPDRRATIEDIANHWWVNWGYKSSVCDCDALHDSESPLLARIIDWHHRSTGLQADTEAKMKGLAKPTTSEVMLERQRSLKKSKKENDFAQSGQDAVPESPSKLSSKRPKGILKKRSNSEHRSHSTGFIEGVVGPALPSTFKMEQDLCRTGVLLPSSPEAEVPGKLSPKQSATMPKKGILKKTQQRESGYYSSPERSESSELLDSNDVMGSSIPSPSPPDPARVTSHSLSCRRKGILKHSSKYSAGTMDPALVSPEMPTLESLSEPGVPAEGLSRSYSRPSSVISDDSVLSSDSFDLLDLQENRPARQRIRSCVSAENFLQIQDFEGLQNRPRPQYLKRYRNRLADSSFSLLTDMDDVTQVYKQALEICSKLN
Outline: as §1

[5] = target: T5, wt human JAK1, catalytic site (Homo sapiens, UniProt P23458); assay: HTRF KinEASE assay, JAK1; format: biochemical; conditions: 2.5 μM ATP; read-out: IC50, Activity Toward JAK1
T5 construct: wt human JAK1, catalytic site; purchased ThermoFisher
Outline: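 Two-step HTRF KinEASE assay: compound, kinase/biotinylated TK substrate and ATP were incubated at least 30 min at room temperature. Antibody plus streptavidin-XL665 was then added and plates were read after 60 min. Inhibition was derived from emission ratios according to the kit protocol.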

T5 sequence (P23458 875-1153 limits assumed): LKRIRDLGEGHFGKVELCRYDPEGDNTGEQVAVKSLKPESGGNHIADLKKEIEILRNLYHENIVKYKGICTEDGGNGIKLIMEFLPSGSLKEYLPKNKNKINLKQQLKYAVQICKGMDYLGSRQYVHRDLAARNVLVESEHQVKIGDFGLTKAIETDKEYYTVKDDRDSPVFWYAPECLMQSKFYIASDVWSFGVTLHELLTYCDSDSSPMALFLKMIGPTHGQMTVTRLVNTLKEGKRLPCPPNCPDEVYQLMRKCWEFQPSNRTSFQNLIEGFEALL
T3 sequence (Q5S007 970-2527 G2019S limits assumed): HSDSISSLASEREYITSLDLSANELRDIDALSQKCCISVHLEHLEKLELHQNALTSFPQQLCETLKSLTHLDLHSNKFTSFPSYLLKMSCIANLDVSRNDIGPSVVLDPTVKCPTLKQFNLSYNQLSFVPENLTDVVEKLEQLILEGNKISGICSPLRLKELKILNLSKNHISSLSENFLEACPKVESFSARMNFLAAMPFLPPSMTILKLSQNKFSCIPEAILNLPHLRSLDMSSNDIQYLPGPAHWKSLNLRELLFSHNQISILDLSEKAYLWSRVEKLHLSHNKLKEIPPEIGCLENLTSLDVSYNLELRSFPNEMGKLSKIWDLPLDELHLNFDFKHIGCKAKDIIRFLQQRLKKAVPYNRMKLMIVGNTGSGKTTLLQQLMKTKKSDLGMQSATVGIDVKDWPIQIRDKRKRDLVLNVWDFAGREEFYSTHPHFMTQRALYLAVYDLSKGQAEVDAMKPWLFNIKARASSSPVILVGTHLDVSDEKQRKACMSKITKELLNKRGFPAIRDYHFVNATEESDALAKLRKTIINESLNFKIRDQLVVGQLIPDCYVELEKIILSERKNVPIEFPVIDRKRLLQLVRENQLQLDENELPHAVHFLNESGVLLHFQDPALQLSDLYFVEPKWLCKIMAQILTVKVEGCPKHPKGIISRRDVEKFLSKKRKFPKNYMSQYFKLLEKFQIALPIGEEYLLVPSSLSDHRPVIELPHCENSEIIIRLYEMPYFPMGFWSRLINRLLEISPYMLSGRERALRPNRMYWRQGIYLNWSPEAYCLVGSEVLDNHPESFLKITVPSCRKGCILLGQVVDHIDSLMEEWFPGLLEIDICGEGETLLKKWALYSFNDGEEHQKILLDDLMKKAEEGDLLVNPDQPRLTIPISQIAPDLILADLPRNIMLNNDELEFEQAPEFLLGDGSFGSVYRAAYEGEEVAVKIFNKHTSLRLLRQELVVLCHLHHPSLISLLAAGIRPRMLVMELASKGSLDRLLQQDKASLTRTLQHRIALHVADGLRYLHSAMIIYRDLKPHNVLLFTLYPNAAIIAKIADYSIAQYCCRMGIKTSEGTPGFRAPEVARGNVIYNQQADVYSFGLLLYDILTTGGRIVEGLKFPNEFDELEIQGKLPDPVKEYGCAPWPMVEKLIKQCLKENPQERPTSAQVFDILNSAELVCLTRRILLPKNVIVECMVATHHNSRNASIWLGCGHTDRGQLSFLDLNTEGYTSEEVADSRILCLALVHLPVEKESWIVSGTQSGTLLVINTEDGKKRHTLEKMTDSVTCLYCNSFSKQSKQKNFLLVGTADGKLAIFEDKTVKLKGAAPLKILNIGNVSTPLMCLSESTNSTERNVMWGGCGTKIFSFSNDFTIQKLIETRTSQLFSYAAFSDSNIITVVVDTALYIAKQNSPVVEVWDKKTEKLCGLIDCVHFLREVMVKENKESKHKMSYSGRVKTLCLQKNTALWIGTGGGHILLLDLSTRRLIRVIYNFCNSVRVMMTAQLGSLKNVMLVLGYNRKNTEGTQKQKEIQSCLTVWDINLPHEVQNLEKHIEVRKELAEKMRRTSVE
T2 sequence (Q5S007 970-2527 limits assumed): as the sequence (Q5S007 970-2527 G2019S limits assumed) above, with S1050G counted along it

For `NC(=O)c1nn(-c2c(F)cccc2Cl)cc1Nc1ccc(C(=O)N2CCCCC2)cc1` [compound 228, 1-(2-chloro-6-fluorophenyl)-4-((4-(piperidine-1-carbonyl)phenyl)amino)-1H-pyrazole-3-carboxamide], the pIC50 [1] was 7.00 to 8.00, the pIC50 [2] was 6.00 to 7.00 and the pIC50 [3] was 6.00 to 7.00. It also gave a pIC50 [4] of 6.00 to 7.00 and a pIC50 [5] of 7.00 to 8.00.
`NC(=O)c1nn(-c2c(F)cccc2F)cc1Nc1ccc(C(=O)NCC(F)(F)F)cc1` [compound 14, 1-(2,6-difluorophenyl)-4-((4-((2,2,2-trifluoroethyl)carbamoyl)phenyl)amino)-1H-pyrazole-3-carboxamide] was tested, and the pIC50 [1] was 7.00 to 8.00, the pIC50 [2] was 6.00 to 7.00 and the pIC50 [3] was 6.00 to 7.00. For the same compound, the pIC50 [4] was 7.00 to 8.00 and the pIC50 [5] was 6.00 to 7.00.
For `Cc1ccn(-c2ccc(Nc3cn(-c4c(F)cccc4Cl)nc3C(N)=O)cc2)n1` [compound 232, 1-(2-chloro-6-fluorophenyl)-4-((4-(3-methyl-1H-pyrazol-1-yl)phenyl)amino)-1H-pyrazole-3-carboxamide], the pIC50 [1] was 7.00 to 8.00, the pIC50 [2] was 6.00 to 7.00 and the pIC50 [3] was 6.00 to 7.00. It also gave a pIC50 [4] of 6.00 to 7.00 and a pIC50 [5] of 7.00 to 8.00.
For `Cn1ccnc1-c1ccc(Nc2cn(-c3c(Cl)cccc3Cl)nc2C(N)=O)cc1` [compound 225, 1-(2,6-dichlorophenyl)-4-((4-(1-methyl-1H-imidazol-2-yl)phenyl)amino)-1H-pyrazole-3-carboxamide], the pIC50 [1] was 7.00 to 8.00, the pIC50 [2] was 6.00 to 7.00 and the pIC50 [3] was 6.00 to 7.00. It also gave a pIC50 [4] of 6.00 to 7.00 and a pIC50 [5] of 7.00 to 8.00.
In the case of `Cn1nc(C(F)(F)F)nc1-c1ccc(Nc2cn(-c3c(F)cccc3F)nc2C(N)=O)cc1` [compound 285, 1-(2,6-difluorophenyl)-4-((4-(1-methyl-3-(trifluoromethyl)-1H-1,2,4-triazol-5-yl)phenyl)amino)-1H-pyrazole-3-carboxamide], the pIC50 [1] was 7.00 to 8.00, the pIC50 [2] was 6.00 to 7.00 and the pIC50 [3] was 6.00 to 7.00. It also gave a pIC50 [4] of 6.00 to 7.00 and a pIC50 [5] of 7.00 to 8.00.
In the case of `NC(=O)c1nn(-c2c(Cl)cccc2Cl)cc1Nc1ccc(C(=O)N2CC(C(N)=O)C2)cc1` [compound 453, 4-[4-(3-Carbamoyl-azetidine-1-carbonyl)-phenylamino]-1-(2,6-dichloro-phenyl)-1H-pyrazole-3-carboxylic acid amide], the pIC50 [1] was > 8.00, the pIC50 [2] was 6.00 to 7.00 and the pIC50 [3] was 6.00 to 7.00. The pIC50 [4] was 6.00 to 7.00 and the pIC50 [5] was > 8.00.
In the case of `CN(C)C1CCN(C(=O)c2ccc(Nc3cn(-c4c(Cl)cccc4Cl)nc3C(N)=O)cc2)CC1` [compound 423, 1-(2,6-dichlorophenyl)-4-((4-(4-(dimethylamino)piperidine-1-carbonyl)phenyl)amino)-1H-pyrazole-3-carboxamide], the pIC50 [1] was 7.00 to 8.00, the pIC50 [2] was 6.00 to 7.00 and the pIC50 [3] was 6.00 to 7.00. For the same compound, the pIC50 [4] was 6.00 to 7.00 and the pIC50 [5] was 7.00 to 8.00.
For `N#Cc1cn(C2COC2)c(-c2ccc(Nc3cn(-c4c(Cl)cccc4Cl)nc3C(N)=O)cc2)n1` [compound 349, 4-((4-(4-cyano-1-(oxetan-3-yl)-1H-imidazol-2-yl)phenyl)amino)-1-(2,6-dichlorophenyl)-1H-pyrazole-3-carboxamide], the pIC50 [1] was > 8.00, the pIC50 [2] was 6.00 to 7.00 and the pIC50 [3] was 6.00 to 7.00. For the same compound, the pIC50 [4] was 6.00 to 7.00 and the pIC50 [5] was 6.00 to 7.00.
`NC(=O)c1nn(-c2c(Cl)cccc2Cl)cc1Nc1ccc(C(=O)N2CCC(N)C2)cc1` (centres unmarked) [compound 317, 4-((4-(3-aminopyrrolidine-1-carbonyl)phenyl)amino)-1-(2,6-dichlorophenyl)-1H-pyrazole-3-carboxamide] was tested, and the pIC50 [1] was 7.00 to 8.00, the pIC50 [2] was 6.00 to 7.00 and the pIC50 [3] was 6.00 to 7.00. For the same compound, the pIC50 [4] was 6.00 to 7.00 and the pIC50 [5] was 7.00 to 8.00.
`CN1CCC(NC(=O)c2ccc(Nc3cn(-c4c(Cl)cccc4Cl)nc3C(N)=O)cc2)CC1` [compound 31, 1-(2,6-dichlorophenyl)-4-((4-((1-methylpiperidin-4-yl)carbamoyl)phenyl)amino)-1H-pyrazole-3-carboxamide] gave a pIC50 [1] of 7.00 to 8.00, a pIC50 [2] of 6.00 to 7.00 and a pIC50 [3] of 6.00 to 7.00. For the same compound, the pIC50 [4] was 6.00 to 7.00 and the pIC50 [5] was 7.00 to 8.00.
For `CN1CCC(Oc2ccc(Nc3cn(-c4c(F)cccc4F)nc3C(N)=O)cc2)CC1` [compound 288, 1-(2,6-difluorophenyl)-4-((4-((1-methylpiperidin-4-yl)oxy)phenyl)amino)-1H-pyrazole-3-carboxamide], the pIC50 [1] was 7.00 to 8.00, the pIC50 [2] was 6.00 to 7.00 and the pIC50 [3] was 6.00 to 7.00. It also gave a pIC50 [4] of 7.00 to 8.00 and a pIC50 [5] of 6.00 to 7.00.
For `Cc1ccnnc1-c1ccc(Nc2cn(-c3c(F)cccc3Cl)nc2C(N)=O)cc1` [compound 56, 1-(2-chloro-6-fluorophenyl)-4-((4-(4-methylpyridazin-3-yl)phenyl)amino)-1H-pyrazole-3-carboxamide], the pIC50 [1] was 7.00 to 8.00, the pIC50 [2] was 7.00 to 8.00 and the pIC50 [3] was 7.00 to 8.00. For the same compound, the pIC50 [4] was 6.00 to 7.00 and the pIC50 [5] was 6.00 to 7.00.
For `CN1CCC(Oc2ccc(Nc3cn(-c4c(F)cccc4Cl)nc3C(N)=O)cc2)CC1` [compound 295, 1-(2-chloro-6-fluorophenyl)-4-((4-((1-methylpiperidin-4-yl)oxy)phenyl)amino)-1H-pyrazole-3-carboxamide], the pIC50 [1] was 7.00 to 8.00, the pIC50 [2] was 6.00 to 7.00 and the pIC50 [3] was 6.00 to 7.00. The pIC50 [4] was 7.00 to 8.00 and the pIC50 [5] was 7.00 to 8.00.
For `CC(C)(C)OC(=O)NC1CCN(C(=O)c2ccc(Nc3cn(-c4c(Cl)cccc4Cl)nc3C(N)=O)cc2)C1` (centres unmarked) [compound 323, tert-butyl_(1-(4-((3-carbamoyl-1-(2,6-dichlorophenyl)-1H-pyrazol-4-yl)amino)benzoyl)pyrrolidin-3-yl)carbamate], the pIC50 [1] was 7.00 to 8.00, the pIC50 [2] was 6.00 to 7.00 and the pIC50 [3] was 6.00 to 7.00. For the same compound, the pIC50 [4] was 6.00 to 7.00 and the pIC50 [5] was 6.00 to 7.00.
In the case of `CC(C)n1ncnc1-c1ccc(Nc2cn(-c3c(F)cccc3F)nc2C(N)=O)cc1` [compound 309, 1-(2,6-difluorophenyl)-4-((4-(1-isopropyl-1H-1,2,4-triazol-5-yl)phenyl)amino)-1H-pyrazole-3-carboxamide], the pIC50 [1] was 6.00 to 7.00, the pIC50 [2] was 7.00 to 8.00 and the pIC50 [3] was 7.00 to 8.00. It also gave a pIC50 [4] of 6.00 to 7.00 and a pIC50 [5] of 6.00 to 7.00.
`NC(=O)c1nn(-c2c(F)cccc2Cl)cc1Nc1ccc(C(=O)NC2CCCNC2)cc1` (centres unmarked) [compound 38, 1-(2-chloro-6-fluorophenyl)-4-((4-(piperidin-3-ylcarbamoyl)phenyl)amino)-1H-pyrazole-3-carboxamide] was tested, and the pIC50 [1] was 7.00 to 8.00, the pIC50 [2] was 6.00 to 7.00 and the pIC50 [3] was 6.00 to 7.00. It also gave a pIC50 [4] of 7.00 to 8.00 and a pIC50 [5] of 7.00 to 8.00.
`NC(=O)c1nn(-c2c(Cl)cccc2Cl)cc1Nc1ccc(C(=O)N2CC[C@@H](N)C2)cc1` [compound 318, (R)-4-((4-(3-aminopyrrolidine-1-carbonyl)phenyl)amino)-1-(2,6-dichlorophenyl)-1H-pyrazole-3-carboxamide] gave a pIC50 [1] of 7.00 to 8.00, a pIC50 [2] of 6.00 to 7.00 and a pIC50 [3] of 6.00 to 7.00. For the same compound, the pIC50 [4] was 6.00 to 7.00 and the pIC50 [5] was 7.00 to 8.00.
`CN(C)[C@@H]1CCN(C(=O)c2ccc(Nc3cn(-c4c(Cl)cccc4Cl)nc3C(N)=O)cc2)C1` [compound 313, (R)-1-(2,6-dichlorophenyl)-4-((4-(3-(dimethylamino)pyrrolidine-1-carbonyl)phenyl)amino)-1H-pyrazole-3-carboxamide] was tested, and the pIC50 [1] was 7.00 to 8.00, the pIC50 [2] was 6.00 to 7.00 and the pIC50 [3] was 6.00 to 7.00. The pIC50 [4] was 6.00 to 7.00 and the pIC50 [5] was 7.00 to 8.00.
In the case of `CCc1nc(C(F)(F)F)nn1-c1ccc(Nc2cn(-c3c(F)cccc3F)nc2C(N)=O)cc1` [compound 284], the pIC50 [1] was 7.00 to 8.00, the pIC50 [2] was 6.00 to 7.00 and the pIC50 [3] was 6.00 to 7.00. It also gave a pIC50 [4] of 6.00 to 7.00 and a pIC50 [5] of 6.00 to 7.00.
